From patent US6200993A, “Heterosubstituted pyridine derivatives as PDE4 inhibitors” (Merck Frosst Canada & Co., priority 2000, dated 2001) come the findings set out here.

T1 sequence (P27815 248-886 limits assumed): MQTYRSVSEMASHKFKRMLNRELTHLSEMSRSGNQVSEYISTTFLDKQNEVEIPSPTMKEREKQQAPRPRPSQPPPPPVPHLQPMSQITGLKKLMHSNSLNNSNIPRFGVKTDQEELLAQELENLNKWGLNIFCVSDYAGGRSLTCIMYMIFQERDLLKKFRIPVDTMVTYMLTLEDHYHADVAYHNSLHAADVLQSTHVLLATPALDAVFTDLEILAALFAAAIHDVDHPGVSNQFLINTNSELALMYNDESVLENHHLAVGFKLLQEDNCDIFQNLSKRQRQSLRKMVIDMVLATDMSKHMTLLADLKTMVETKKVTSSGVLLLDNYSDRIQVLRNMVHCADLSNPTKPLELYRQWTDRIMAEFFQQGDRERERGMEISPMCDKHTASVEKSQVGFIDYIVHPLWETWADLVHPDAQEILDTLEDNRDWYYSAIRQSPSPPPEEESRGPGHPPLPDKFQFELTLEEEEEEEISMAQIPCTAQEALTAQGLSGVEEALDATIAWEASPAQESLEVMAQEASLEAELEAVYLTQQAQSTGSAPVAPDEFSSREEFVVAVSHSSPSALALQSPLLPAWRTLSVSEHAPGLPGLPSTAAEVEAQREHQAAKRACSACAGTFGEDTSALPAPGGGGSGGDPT

The assay addresses T1, GST-Met 248 PDE 4a (purified GST fusion protein of the human recombinant phosphodiesterase IVa (met-248)) (Homo sapiens, UniProt P27815).
T1 construct: phosphodiesterase IVa (met-248); made in house; host or cells: Sf-9 insect cells (baculovirus)
In words: SPA Based PDE Activity Assay (hydrolysis of cAMP to AMP). It is filed as biochemical. To be noted: 100 nM cAMP; baculovirus/Sf-9 expressed enzyme; ten point titration. As to the method:
SPA Based PDE Activity Assay Protocol
Compounds which inhibit the hydrolysis of cAMP to AMP by the type-IV cAMP-specific phosphodiesterases were screened in 96-well plate format as follows:
In a 96 well-plate at 30° C. was added the test compound (dissolved in 2 μl DMSO), […] of substrate buffer containing [2,8-^3 H] adenosine 3',5'-cyclic phosphate (cAMP, 100 nM to 50 μM), 10 mM MgCl2, 1 mM EDTA, 50 mM Tris, pH 7.5. The reaction was initiated by the addition of […] of human recombinant PDE-IV (the amount was controlled so that ~10% product was formed in 10 min.). The reaction was stopped after 10 min. by the addition of 1 mg of PDE-SPA beads (Amersham). The product AMP generated was quantified on a Microbeta 96-well plate counter. The signal in the absence of enzyme was defined as the background. 100% activity was defined as the signal detected in the presence of enzyme and DMSO with the background subtracted. Percentage of inhibition was calculated accordingly. IC50 value was approximated with a non-linear regression fit using the standard 4-parameter/multiple binding sites equation from a ten point titration.
IC50 values shown in Table 7 were determined with 100 nM cAMP using the purified GST fusion protein of the human recombinant phosphodiesterase IVa (met-248) produced from a baculovirus/Sf-9 expression system.
Consider `FC(F)Oc1ccc(C(Cc2ccncc2)c2ccc(NCc3ccccc3)nc2)cc1OC(F)F` (racemic) [Example 1, 4-{2-[3,4-Bis(difluoromethoxy)phenyl]-2-[6-(benzylamino)3-pyridyl]ethyl}pyridine], for which the IC50 (as a rule, the point on the concentration scale where inhibition reaches its midpoint) worked out at 0.75 nM.

As to `CC(C)(Nc1ccc(C(Cc2cc[n+]([O-])cc2)c2ccc(OC(F)F)c(OC(F)F)c2)cn1)c1ccccc1` (racemic) [Example 11, 4-{2-[3,4-Bis(difluoromethoxy)phenyl]-2-[6-(1-methyl-1-phenylethylamino)3-pyridyl]ethyl}pyridine-N-oxide], the IC50 is 1.63 nM.

In the case of `CN(Cc1ccccc1)c1ccc(C(Cc2ccncc2)c2ccc(OC(F)F)c(OC(F)F)c2)cn1` (racemic) [Example 54, 4-{2-[3,4-BIS(DIFLUOROMETHOXY)PHENYL]-2-[6-(N-METHYL-N-BENZYLAMINO)3-PYRIDYL]ETHYL}PYRIDINE], the IC50 was 2.84 nM.

Regarding `COc1ccc(N(C)c2ccc(C(Cc3cc[n+]([O-])cc3)c3ccc(OC(F)F)c(OC(F)F)c3)cn2)cc1` (racemic) [Example 69, 4-{2-[3,4-Bis(difluoromethoxy)phenyl]-2-[6-(N-methyl-N-4-methoxyphenylamino)3-pyridyl]ethyl}pyridine-N-oxide], the IC50 is 3.1 nM.

Consider `O=C(c1ccc(F)cc1)N(C(=O)c1ccc(F)cc1)c1ccc(C(Cc2cc[n+]([O-])cc2)c2ccc(OC(F)F)c(OC(F)F)c2)cn1` (single isomer, unassigned; enantiomer-2) [Example 99, (ENANTIOMER-2)-4-{2-[3,4-BIS(DIFLUOROMETHOXY)PHENYL]-2-{6-[N,N-DI(4-FLUOROBENZAMIDE)]3-PYRIDYL}ETHYL}PYRIDINE-N-OXIDE], for which the IC50 is 0.84 nM.
